Source: patent US5750540A, “1,4-di-substituted piperidine derivatives” (Banyu Pharmaceutical Co., Ltd., priority 1995, dated 1998)

Tests used:
muscarinic M3 receptor [1] = target: T1, muscarinic M3 receptor (Rattus norvegicus, UniProt P08483); assay: Intravesical bladder pressure in rats; assay type: in vivo; design: from tissue; conditions: i.v., 25% inhibition of peak intravesical bladder pressure
Description: (§1) Tests for antagonism against muscarinic M3 receptor (in vivo)
4) Tests for intravesical bladder pressure in rats
These tests were performed according to the method of Maggi et al. (Drug Dev. Res. 10: 157-170, 1987). Briefly, eight- to ten-weeks-old male rats of the Sprague-Dawley strain, weighing 330-370 g, were anesthetized by subcutaneous administration of urethane (1 g/kg) and α-chloralose (50 mg/kg), and the right jugular vein was cannulated for drug administration. The body temperature was kept constant by means of a heating pad maintained at 37° C. Through a midline incision of the abdomen, the urinary bladder was exposed and emptied of urine by the application of a slight manual pressure. A 20-gauge needle was inserted through the apex of the bladder dome by 3-4 mm into its lumen. The needle had previously been connected to a pressure transducer and an infusion pump by means of polyethylene tubing and the whole system filled with saline. After a 30-minutes equilibration period at zero volume, saline was infused (2.8 ml/hr) until a coordinated sustained contraction, reflecting the peak intravesical bladder pressure, occured. The bladder was then emptied manually and allowed to rest for five minutes. PvesP was defined as the difference between the maximum and resting bladder pressures. This procedure was repeated at least five times and the evaluation of a test compound was carried out in the animals in which a stable peak intravesical bladder pressure was recorded. The drug potency (ID25 ) was determined after intravenous administration of the test compound during the rest period. Five minutes after drug administration, the infusion of saline was started to induce micturition contraction and the peak intravesical bladder pressure was recorded. The depression in peak intravesical bladder pressure was expressed as a percent of the control peak intravesical bladder pressure observed before administration of the test compound. The ID25 value, calculated by probit analysis, was defined as the drug dose that inhibited the control peak intravesical bladder pressure by 25%.

[2] = target: T2, airway M3 receptors (trachea) (Rattus norvegicus, UniProt P08483); assay: Antagonism against airway M3 receptors in an isolated rat trachea
T2 construct: the trachea was excised; from tissue; host or cells: isolated rat trachea
T2 sequence (P08483 whole entry): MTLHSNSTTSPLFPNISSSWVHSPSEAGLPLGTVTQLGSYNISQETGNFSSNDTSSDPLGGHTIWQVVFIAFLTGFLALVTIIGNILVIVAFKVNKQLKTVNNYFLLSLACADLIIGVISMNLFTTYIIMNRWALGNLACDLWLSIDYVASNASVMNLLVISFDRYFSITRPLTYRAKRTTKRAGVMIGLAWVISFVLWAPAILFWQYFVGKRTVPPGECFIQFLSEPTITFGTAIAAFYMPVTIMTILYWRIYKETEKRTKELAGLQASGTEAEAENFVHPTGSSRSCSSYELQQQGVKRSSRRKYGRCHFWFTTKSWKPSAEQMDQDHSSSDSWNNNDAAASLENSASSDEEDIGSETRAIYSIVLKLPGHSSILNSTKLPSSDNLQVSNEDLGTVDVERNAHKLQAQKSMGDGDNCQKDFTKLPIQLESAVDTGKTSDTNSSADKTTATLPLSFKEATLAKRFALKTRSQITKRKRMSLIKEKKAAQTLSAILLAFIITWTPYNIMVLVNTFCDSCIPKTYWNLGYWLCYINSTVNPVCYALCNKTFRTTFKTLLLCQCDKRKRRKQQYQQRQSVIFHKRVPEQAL
Description: 3) Tests for antagonism against the airway M3 receptors in an isolated rat trachea
These tests were performed according to an ordinary method. A male SD strain rat (weighing 300-500 g) was killed by exsanguination, and the trachea was excised. Annular segments (2 mm wide) were cut out from the trachea and cut open at the anterior cartilage part to make transversely sectioned trachea preparations. A preparation was suspended in a Magnus tube filled with 5 ml of Krebs-Henseleit nutrient solution (gassed with 95% O2 -5% CO2 and kept at 32° C.) with an initial tension of 1.0 g and a resting tension of 0.6 g. The tension of the preparation was recorded isometrically. After being equilibrated for an hour, the preparation was made to contract twice by treatment with 10^-4 M carbachol, and the second contraction induced by carbachol was used as the reference contraction. After the preparation was washed with fresh solution to make a return to the base line, a test compound was administered thereto (or no treatment was made). Ten minutes later, carbachol (10^-8 to 10^-3 M) was cumulatively administered in three-fold increasing doses to obtain a dose-response curve. The dose-response curve was constructed by expressing responses as percentages based on the reference contraction of the preparation. The antagonistic potency (KB value) of the test compound (i.e., a compound in accordance with the present invention) was determined from the degree of shift of the dose-response curve obtained by treatment with the test compound.

muscarinic M3 receptor [3] = target: T1, muscarinic M3 receptor; assay: in vivo; design: from tissue; host or cells: living rat, airways; conditions: iv, read-out: Mydriasis ED50
Description: as §1
3) Tests for mydriasis in rats
Five- to seven-weeks-old male rats of the Sprague-Dawley strain were anesthetized with pentobarbital (65 mg/kg, i.p.), and a cannula was inserted into the right jugular vein for purposes of drug administration. By using a graduated scale (pulilometer), pupillary responses to drugs were measured to the nearest 0.1 mm at the point of the greatest diameter. […] Responses were expressed as percentages of the maximal increase in pupil diameter induced by administration of atropine (30 μg/kg, i.v.). The ED50 value was calculated from the dose-response curve of the test compound using probit analysis and defined as the drug dose that induced 50% of the maximal response.

[4] = tested on: M1 receptors (vas deferens); assay: Antagonism against M1 receptors in an isolated rabbit vas deferens; conditions: in vitro, agonist McN A-343, 10 min
Description: 1) Tests for antagonism against the M1 receptors in an isolated rabbit vas deferens
These tests were performed according to an ordinary method. A male Japanese albino rabbit (weighing bout 3 kg) was killed by exsanguination from a femoral artery under anesthesia with pentobarbital, and the vasa deferentia were excised. Portions (1 cm long) thereof adjacent to the prostate were used as vas deferens preparations. A preparation was longitudinally suspended in a Magnus tube filled with 20 ml of Krebs-Henseleit nutrient solution [gassed with 95% O2 -5% CO2 and kept at 32° C.; containing […] yohimbine (a2 antagonist)] with an initial tension of 1.0 g. The tension of the preparation was recorded isometrically. After the preparation was equilibrated for 30 minutes, electrical stimuli (0.5 ms, 30 V) were applied thereto by means of a bipolar electrode to induce contractions at intervals of 20 seconds. […] Responses to McN A-343 were expressed as percentages based on the amount of contraction before administration of McN A-343. The antagonistic potency (KB value) of the test compound was determined from the degree of shift of the dose-response curve obtained by treatment with the test compound.

T1 sequence (P08483 whole entry): as above

For `CC(C)=CCCN1CCC(NC(=O)C(O)(c2ccccc2)C2CCC2)CC1` (stereo not drawn) [Example 1, N-[1-(4-methyl-3-pentenyl)-piperidin-4-yl]-2-cyclobutyl-2-hydroxy-2-phenylacetamide], the “Urinating contraction ID25” value (muscarinic M3 receptor [1]) was 1.3 mg/kg i.v, the Kb ([2]; in vitro, isolated rat trachea, agonist carbachol) was 19 nM and the “M2/M3 *” value ([2]; ratio of KB, right atrium M2 over trachea M3 (* Trachea M3)) was 79. For the same molecule, the “M1/M3 *” value ([2]; ratio of KB, vas deferens M1 over trachea M3 (* Trachea M3)) was 6.3, the ED50 (muscarinic M3 receptor [3]) was 1.4 mg/kg and the Kb [4] was 120 nM.
